Measured values published in ChEMBL document CHEMBL5131451, “BOPPY-based novel fluorescent dopamine D2 and D3 receptor ligands” (Bioorg Med Chem Lett, 2022).

How the values were obtained:
D(2) dopamine receptor = D(2) dopamine receptor (Homo sapiens, UniProt P14416); test: Binding affinity to dopamine D2S receptor (unknown origin) by radioligand displacement assay
D(3) dopamine receptor = D(3) dopamine receptor (Homo sapiens, UniProt P35462); test: Binding affinity to dopamine D3 receptor (unknown origin) by radioligand displacement assay
Homo sapiens = species on record: Homo sapiens; test: Ratio of Ki for binding affinity to D2S (unknown origin) to Ki for binding affinity to D3R (unknown origin)

D(3) dopamine receptor, sequence (P35462 whole entry): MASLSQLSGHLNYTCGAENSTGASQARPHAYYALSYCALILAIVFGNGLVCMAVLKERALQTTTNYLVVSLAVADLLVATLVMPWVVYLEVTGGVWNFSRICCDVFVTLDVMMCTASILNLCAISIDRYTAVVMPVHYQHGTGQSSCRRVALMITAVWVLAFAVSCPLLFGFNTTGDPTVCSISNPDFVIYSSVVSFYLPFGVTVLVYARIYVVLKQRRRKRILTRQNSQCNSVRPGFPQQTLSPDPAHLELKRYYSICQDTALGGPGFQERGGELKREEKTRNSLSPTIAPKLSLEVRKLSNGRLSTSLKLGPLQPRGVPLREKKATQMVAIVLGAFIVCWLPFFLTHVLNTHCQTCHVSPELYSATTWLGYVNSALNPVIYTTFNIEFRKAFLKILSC
D(2) dopamine receptor, sequence (P14416 whole entry): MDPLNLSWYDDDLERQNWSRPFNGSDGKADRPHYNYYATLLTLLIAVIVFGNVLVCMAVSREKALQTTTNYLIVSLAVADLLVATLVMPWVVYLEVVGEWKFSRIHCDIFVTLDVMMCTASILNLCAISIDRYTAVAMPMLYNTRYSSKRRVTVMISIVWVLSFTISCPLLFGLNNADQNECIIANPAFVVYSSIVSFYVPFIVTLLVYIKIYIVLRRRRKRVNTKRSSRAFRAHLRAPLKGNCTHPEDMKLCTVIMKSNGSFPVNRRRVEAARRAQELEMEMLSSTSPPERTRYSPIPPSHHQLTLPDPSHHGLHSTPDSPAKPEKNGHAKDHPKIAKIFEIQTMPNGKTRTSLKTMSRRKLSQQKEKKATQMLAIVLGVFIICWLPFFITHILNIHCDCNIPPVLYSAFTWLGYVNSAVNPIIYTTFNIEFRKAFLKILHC

Row | SMILES | Ki (D(2) dopamine receptor) | Ki (D(3) dopamine receptor) | Ratio Ki (Homo sapiens)
1 | CCc1c(C)c2n(c1C)[B-](F)(F)[N+]1=C3C=CC=C(NCCCCN4CCN(c5ccccc5OC)CC4)N3[B-](F)(F)[N+]1=C2 | 309 nM | 34.3 nM | 9.5
2 | COc1ccccc1N1CCN(CCCCNC2=CC=CC3=[N+]4[N+](=Cc5c(C)cc(C)n5[B-]4(F)F)[B-](F)(F)N23)CC1 | 81.1 nM | 27.2 nM | 3
3 | Cc1cc(C)n2c1C=[N+]1[N+](=C3C=CC=C(NCCCCN4CCN(c5cccc(Cl)c5Cl)CC4)N3[B-]1(F)F)[B-]2(F)F | 328 nM | 22.5 nM | 14.6
4 | CCc1c(C)c2n(c1C)[B-](F)(F)[N+]1=C3C=CC=C(NCCCCN4CCN(c5cccc(Cl)c5Cl)CC4)N3[B-](F)(F)[N+]1=C2 | 497 nM | 52.1 nM | 9
5 | COc1ccccc1N1CCN(CCCCNC2=CC=CC3=[N+]4[N+](=Cc5cc6ccccc6n5[B-]4(F)F)[B-](F)(F)N23)CC1 | 182 nM | 16.7 nM | 10.9
